From ChEMBL document CHEMBL4190316, “Synthesis and biological evaluation of 4-biphenylamino-5-halo-2(5H)-furanones as potential anticancer agents” (Eur J Med Chem, 2017)

What was measured:
[1] = Cytotoxicity against human NCI-EC1 cells assessed as reduction in cell viability after 72 hrs by MTT assay; assay type: functional, cell-based
HaCaT = assay: Cytotoxicity against human HaCaT cells assessed as reduction in cell viability after 72 hrs by MTT assay; assay type: cell-based
MDA-MB-231 = assay: Cytotoxicity against human MDA-MB-231 cells assessed as reduction in cell viability after 72 hrs by MTT assay; assay type: functional, cell-based; conditions: MDA-MB-231, 72 h
CNE = assay: Cytotoxicity against human CNE1 cells assessed as reduction in cell viability after 72 hrs by MTT assay; assay type: functional, cell-based
MCF7 = assay: Cytotoxicity against human MCF7 cells assessed as reduction in cell viability after 72 hrs by MTT assay; assay type: functional, cell-based; conditions: MCF7, 72 h
[2] = Octanol-water partition coefficient, log P of the compound at 10 mM after 24 hrs by UV-vis spectroscopic method; assay type: physicochemical
C6 = assay: Cytotoxicity against rat C6 cells assessed as reduction in cell viability after 72 hrs by MTT assay; assay type: functional, cell-based; conditions: C6, 72 h
HepG2 = assay: Cytotoxicity against human HepG2 cells assessed as reduction in cell viability after 72 hrs by MTT assay; assay type: functional, cell-based; conditions: HepG2, 72 h

Row | SMILES | IC50 [1] | IC50 (HaCaT) | IC50 (MDA-MB-231) | IC50 (CNE) | IC50 (MCF7) | logP at 24 h, 10000 µM [2] | IC50 (C6) | IC50 (HepG2)
1 | COC1OC(=O)C(Cl)=C1Nc1ccc(-c2ccccc2)cc1 (stereo not given) | 32.2 µM | 41.2 µM | 66.5 µM | 53.5 µM | 40.6 µM | 1.5 | 36.3 µM | 35.8 µM
2 | COC1OC(=O)C(Cl)=C1Nc1ccc(-c2ccc(N)cc2)cc1 (stereo not given) | > 100 µM | > 100 µM | > 100 µM | > 100 µM | > 100 µM | 0.913 | 64.8 µM | > 100 µM
3 | COC1OC(=O)C(Br)=C1Nc1ccc(-c2ccccc2)cc1 (stereo not given) | 48 µM | 67.5 µM | 97.5 µM | 52.6 µM | 37.8 µM | 1.33 | 37.9 µM | 45.2 µM
4 | CCOC1OC(=O)C(Br)=C1Nc1ccc(-c2ccccc2)cc1 (stereo not given) | 55 µM | 50.8 µM | 70.4 µM | 41.8 µM | 46.6 µM | 1.74 | 27.4 µM | 34.9 µM
5 | CCOC1OC(=O)C(Br)=C1Nc1ccc(-c2ccc(N)cc2)cc1 (stereo not given) | 82.8 µM | 70.8 µM | 48.6 µM | 90.1 µM | 58.1 µM | 1.58 | 56.9 µM | 55.8 µM
